Experimental findings from PubChem BioAssay AID180 (DTP/NCI, 2004) are described below.

Values joined by “and” are separate entries in the source; they are usually repeats but may differ in a detail not shown here. Equal values may be shown once.

In this experiment the test system is BDF1 mice, Adenocarcinoma 755 s.c., tumor weight T/C. The experiment in a line: NCI In Vivo Anticancer Drug Screen. Data for tumor model Adenocarcinoma 755 (subcutaneous) in B6D2F1 (BDF1) mice. The conditions noted are these: endpoint: mean tumor weight, higher = larger tumour. In short, it runs like this: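 Values express treated (T) relative to vehicle-dosed control (C) animals, based on survival or tumour size measured after compound treatment of mice bearing a transplanted tumour.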

The mark [1] stands for this setting: dose: 62.0 mg/kg/injection, schedule: Q01DX011 (ip), vehicle: methylcellulose (MC).
[2] abbreviates: dose: 125.0 mg/kg/injection, schedule: Q01DX011 (ip), vehicle: methylcellulose (MC).
Where [3] appears, read: dose: 250.0 mg/kg/injection, schedule: Q01DX011 (ip), vehicle: methylcellulose (MC).
Where [4] appears, read: dose: 15.0 mg/kg/injection, schedule: Q01DX011 (ip), vehicle: methylcellulose (MC).
Where [5] appears, read: dose: 31.0 mg/kg/injection, schedule: Q01DX011 (ip), vehicle: methylcellulose (MC).

`Nc1nc(SCc2ccccc2)c2[nH]cnc2n1`: the T/C runs as follows: (dose: 0.37 mg/kg/injection, schedule: Q01DX011 (ip), vehicle: carboxymethylcellulose (CMC)) 114 % of control; (dose: 0.37 mg/kg/injection, schedule: Q01DX011 (oral), vehicle: carboxymethylcellulose (CMC)) 71 % of control; (dose: 0.75 mg/kg/injection, schedule: Q01DX011 (ip), vehicle: carboxymethylcellulose (CMC)) 38 % of control; (dose: 0.75 mg/kg/injection, schedule: Q01DX011 (oral), vehicle: carboxymethylcellulose (CMC)) 52 % of control; (dose: 1.0 mg/kg/injection, schedule: Q#A X021 (ip), vehicle: carboxymethylcellulose (CMC)) 45 % of control; (dose: 1.25 mg/kg/injection, schedule: Q01DX011 (ip), vehicle: carboxymethylcellulose (CMC)) 53 % of control. Moreover, the T/C runs as follows: (dose: 1.5 mg/kg/injection, schedule: Q01DX011 (im), vehicle: carboxymethylcellulose (CMC)) 69 % of control; (dose: 1.5 mg/kg/injection, schedule: Q01DX011 (ip), vehicle: carboxymethylcellulose (CMC)) 41 % of control; (dose: 1.5 mg/kg/injection, schedule: Q01DX011 (oral), vehicle: carboxymethylcellulose (CMC)) 61 % of control; (dose: 1.75 mg/kg/injection, schedule: Q01DX001 (ip), vehicle: carboxymethylcellulose (CMC)) 94 % of control and 114 % of control; (dose: 2.0 mg/kg/injection, schedule: Q01DX006 (iv), vehicle: carboxymethylcellulose (CMC)) 91 % of control; (dose: 2.0 mg/kg/injection, schedule: Q01DX011 (im), vehicle: carboxymethylcellulose (CMC)) 38 % of control. The T/C was 33 % of control (dose: 2.0 mg/kg/injection, schedule: Q01DX011 (ip), vehicle: carboxymethylcellulose (CMC)); 56 % of control (dose: 2.0 mg/kg/injection, schedule: Q01DX011 (sc), vehicle: carboxymethylcellulose (CMC)); 15 % of control (dose: 2.0 mg/kg/injection, schedule: Q#A X021 (ip), vehicle: carboxymethylcellulose (CMC)); 32 % of control (dose: 2.5 mg/kg/injection, schedule: Q01DX011 (ip), vehicle: carboxymethylcellulose (CMC)); 12 % of control (dose: 3.0 mg/kg/injection, schedule: Q01DX011 (im), vehicle: carboxymethylcellulose (CMC)); 5 % of control (dose: 3.0 mg/kg/injection, schedule: Q01DX011 (ip), vehicle: carboxymethylcellulose (CMC)). For the same compound, the T/C was 19 % of control (dose: 3.0 mg/kg/injection, schedule: Q01DX011 (oral), vehicle: carboxymethylcellulose (CMC)); 112 % of control and 115 % of control (dose: 3.5 mg/kg/injection, schedule: Q01DX001 (ip), vehicle: carboxymethylcellulose (CMC)); 40 % of control (dose: 4.0 mg/kg/injection, schedule: Q01DX006 (iv), vehicle: carboxymethylcellulose (CMC)); 10 % of control (dose: 4.0 mg/kg/injection, schedule: Q01DX011 (im), vehicle: carboxymethylcellulose (CMC)); 8 % of control (dose: 4.0 mg/kg/injection, schedule: Q01DX011 (ip), vehicle: carboxymethylcellulose (CMC)); 13 % of control (dose: 4.0 mg/kg/injection, schedule: Q01DX011 (sc), vehicle: carboxymethylcellulose (CMC)). Besides, the T/C (dose: 7.0 mg/kg/injection, schedule: Q01DX001 (ip), vehicle: carboxymethylcellulose (CMC)) is 20 % of control and 33 % of control; the T/C (dose: 8.0 mg/kg/injection, schedule: Q01DX006 (iv), vehicle: carboxymethylcellulose (CMC)) is 13 % of control; the T/C (dose: 8.0 mg/kg/injection, schedule: Q01DX011 (im), vehicle: carboxymethylcellulose (CMC)) was 3 % of control; the T/C (dose: 8.0 mg/kg/injection, schedule: Q01DX011 (ip), vehicle: carboxymethylcellulose (CMC)) is 3 % of control; the T/C (dose: 8.0 mg/kg/injection, schedule: Q01DX011 (sc), vehicle: carboxymethylcellulose (CMC)) is 4 % of control; the T/C (dose: 8.0 mg/kg/injection, schedule: Q03DX004 (ip), vehicle: carboxymethylcellulose (CMC)) is 25 % of control. Further, the T/C is, setting by setting: (dose: 14.0 mg/kg/injection, schedule: Q07DX002 (ip), vehicle: carboxymethylcellulose (CMC)) 34 % of control; (dose: 16.0 mg/kg/injection, schedule: Q01DX006 (iv), vehicle: carboxymethylcellulose (CMC)) 7 % of control; (dose: 16.0 mg/kg/injection, schedule: Q01DX011 (im), vehicle: carboxymethylcellulose (CMC)) 2 % of control; (dose: 16.0 mg/kg/injection, schedule: Q01DX011 (ip), vehicle: carboxymethylcellulose (CMC)) 3 % of control; (dose: 16.0 mg/kg/injection, schedule: Q01DX011 (sc), vehicle: carboxymethylcellulose (CMC)) 3 % of control; (dose: 16.0 mg/kg/injection, schedule: Q03DX004 (ip), vehicle: carboxymethylcellulose (CMC)) 8 % of control. Also, the T/C by setting is: (dose: 24.0 mg/kg/injection, schedule: Q01DX006 (iv), vehicle: carboxymethylcellulose (CMC)) 4 % of control; (dose: 24.0 mg/kg/injection, schedule: Q01DX011 (im), vehicle: carboxymethylcellulose (CMC)) 4 % of control; (dose: 24.0 mg/kg/injection, schedule: Q01DX011 (ip), vehicle: carboxymethylcellulose (CMC)) 3 % of control; (dose: 24.0 mg/kg/injection, schedule: Q01DX011 (sc), vehicle: carboxymethylcellulose (CMC)) 3 % of control; (dose: 28.0 mg/kg/injection, schedule: Q01DX001 (ip), vehicle: carboxymethylcellulose (CMC)) 12 % of control; (dose: 28.0 mg/kg/injection, schedule: Q07DX002 (ip), vehicle: carboxymethylcellulose (CMC)) 30 % of control. The T/C (dose: 32.0 mg/kg/injection, schedule: Q01DX006 (iv), vehicle: carboxymethylcellulose (CMC)) was 5 % of control; the T/C (dose: 32.0 mg/kg/injection, schedule: Q01DX011 (im), vehicle: carboxymethylcellulose (CMC)) is 3 % of control; the T/C (dose: 48.0 mg/kg/injection, schedule: Q01DX011 (sc), vehicle: carboxymethylcellulose (CMC)) was 2 % of control; the T/C (dose: 56.0 mg/kg/injection, schedule: Q01DX001 (ip), vehicle: carboxymethylcellulose (CMC)) is 10 % of control; the T/C (dose: 56.0 mg/kg/injection, schedule: Q07DX002 (ip), vehicle: carboxymethylcellulose (CMC)) is 18 % of control; the T/C (dose: 64.0 mg/kg/injection, schedule: Q01DX011 (sc), vehicle: carboxymethylcellulose (CMC)) was 3 % of control. The T/C (dose: 112.0 mg/kg/injection, schedule: Q01DX001 (ip), vehicle: carboxymethylcellulose (CMC)) is 10 % of control and the T/C (dose: 112.0 mg/kg/injection, schedule: Q07DX002 (ip), vehicle: carboxymethylcellulose (CMC)) is 1 % of control.

As to `Cn1cnc2c(C(F)(F)F)nc(Cl)nc21`, the T/C runs as follows: (dose: 30.0 mg/kg/injection, schedule: Q01DX011 (ip), vehicle: saline) 98 % of control; (dose: 60.0 mg/kg/injection, schedule: Q01DX011 (ip), vehicle: saline) 91 % of control.

As to `CCCCNc1nc(N)nc2c1nnn2CCCC`, the T/C reads like this: under setting [1], 54 % of control; under setting [2], 78 % of control; under setting [3], 45 % of control.

Take `N#Cc1ccc(Nc2cc(Cl)nc(N)n2)cc1`: the T/C under setting [4] was 89 % of control; the T/C under setting [5] is 87 % of control; the T/C under setting [1] was 50 % of control; the T/C under setting [2] is 97 % of control; the T/C under setting [3] is 65 % of control.

`CSc1ncc(Br)c(=O)[nH]1`: the T/C runs as follows: under setting [4], 81 % of control; under setting [5], 72 % of control; under setting [3], 56 % of control.

Consider `NC(=O)c1cn(C2OC(CO)C(O)C2O)c2ncnc(N)c12` (configuration not stated), for which the T/C by setting is: (dose: 0.12 mg/kg/injection, schedule: Q01DX011 (ip), vehicle: carboxymethylcellulose (CMC)) 71 % of control; (dose: 0.25 mg/kg/injection, schedule: Q01DX011 (ip), vehicle: carboxymethylcellulose (CMC)) 54 % of control; (dose: 0.5 mg/kg/injection, schedule: Q01DX011 (ip), vehicle: carboxymethylcellulose (CMC)) 51 % of control.

In the case of `Fc1ccccc1CSc1ncnc2c1ncn2C1CCCCO1` (configuration not stated), the T/C (dose: 30.0 mg/kg/injection, schedule: Q01DX011 (ip), vehicle: methylcellulose (MC)) was 21 % of control.

The term T/C denotes the result in the treated group divided by that in the control group, in per cent.
